“And” between values parts separate entries of the source, which are not always exact repeats. Identical values can stand only once.
Tested on: 772245-204-R-J1-PDC complex spheroid growth
Assay: Anticancer human tumor 772245-204-R-J1-PDC patient-derived rhabdomyosarcoma cell line growth inhibition [Asc]
Conditions: for viability, T/C: stronger effect = lower value
How it was run: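 Stromal components (HUVEC and hMSC) are co-assembled with the cancer cells into multicellular spheroids. Drugs are then added singly or paired, at concentrations falling by half-log increments from a clinically achievable maximum, capped at 10 microM without known Cmax.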
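Further: compound exposure lasted seven days.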
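Wherever viability, T/C is given: 100% = DMSO vehicle control viability.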

`C=C(F)C(=O)N1CCN(c2nc(OCC3CCCN3C)nc3c2CCN(c2cccc4cccc(Cl)c24)C3)CC1CC#N` (configuration not stated) + Cc1c(S(C)(=O)=O)c(-c2cc(F)cc(N3CCN(c4ccc(NS(=O)(=O)c5ccc(NC(CCN6CCC(C(=O)OCCCP(=O)(O)O)CC6)CSc6ccccc6)c(S(=O)(=O)C(F)(F)F)c5)cc4)CC3)c2)c(-c2ccc(Cl)cc2)n1C(C)C was tested, and the IC50 (curve of first compound, second compound 0.1 µM) was 1570 nM, the IC50 (curve of first compound, second compound 0.316 µM) was 772 nM and the IC50 (curve of first compound, second compound 1 µM) was < 31.6 nM. The IC50 (curve of first compound, second compound 3.16 µM) was < 31.6 nM, the IC50 (curve of first compound, second compound 10 µM) was < 31.6 nM and the viability, T/C (second compound 0.1 µM, first compound 0.0316 µM) was 79%. For the same compound, the viability, T/C (second compound 0.1 µM, first compound 0.1 µM) was 77.7%, the viability, T/C (second compound 0.1 µM, first compound 0.316 µM) was 72.6% and the viability, T/C (second compound 0.1 µM, first compound 1 µM) was 70.7%. The viability, T/C (second compound 0.1 µM, first compound 3.16 µM) was 18.1%, the viability, T/C (second compound 0.1 µM, first compound 10 µM) was 0.14% and the viability, T/C (second compound 0.316 µM, first compound 0.0316 µM) was 60.4%. It also gave a viability, T/C (second compound 0.316 µM, first compound 0.1 µM) of 65.2%, a viability, T/C (second compound 0.316 µM, first compound 0.316 µM) of 52.3% and a viability, T/C (second compound 0.316 µM, first compound 1 µM) of 47.8%. It also gave a viability, T/C (second compound 0.316 µM, first compound 3.16 µM) of 3.54%, a viability, T/C (second compound 0.316 µM, first compound 10 µM) of 0.12% and a viability, T/C (second compound 1 µM, first compound 0.0316 µM) of 40%. The viability, T/C (second compound 1 µM, first compound 0.1 µM) was 45.9%, the viability, T/C (second compound 1 µM, first compound 0.316 µM) was 35.4% and the viability, T/C (second compound 1 µM, first compound 1 µM) was 30.9%. For the same compound, the viability, T/C (second compound 1 µM, first compound 3.16 µM) was 2.95%, the viability, T/C (second compound 1 µM, first compound 10 µM) was 0.1% and the viability, T/C (second compound 3.16 µM, first compound 0.0316 µM) was 35.7%. The viability, T/C (second compound 3.16 µM, first compound 0.1 µM) was 39.7%, the viability, T/C (second compound 3.16 µM, first compound 0.316 µM) was 45.7% and the viability, T/C (second compound 3.16 µM, first compound 1 µM) was 20.1%. The viability, T/C (second compound 3.16 µM, first compound 3.16 µM) was 1.47%, the viability, T/C (second compound 3.16 µM, first compound 10 µM) was 0.11% and the viability, T/C (second compound 10 µM, first compound 0.0316 µM) was 43.3%. For the same compound, the viability, T/C (second compound 10 µM, first compound 0.1 µM) was 39.4%, the viability, T/C (second compound 10 µM, first compound 0.316 µM) was 37.3% and the viability, T/C (second compound 10 µM, first compound 1 µM) was 17.6%. For the same compound, the viability, T/C (second compound 10 µM, first compound 3.16 µM) was 1.02% and the viability, T/C (second compound 10 µM, first compound 10 µM) was 0.18%.
`C=CC(=O)N1CCN(c2nc(=O)n(-c3c(C)ccnc3C(C)C)c3nc(-c4c(O)cccc4F)c(F)cc23)C(C)C1` (configuration not stated) was tested, and the viability, T/C (compound 0.0316 µM) was 91.4% and 88.5% and 102%, the viability, T/C (compound 0.1 µM) was 97.5% and 109% and 89.4% and the viability, T/C (compound 0.316 µM) was 95.3% and 97% and 98%. The viability, T/C (compound 1 µM) was 90.4% and 101% and 97.3%, the viability, T/C (compound 3.16 µM) was 90.9% and 102% and 111% and the viability, T/C (compound 10 µM) was 79.6% and 97.6% and 109%. For the same compound, the IC50 (curve of compound) was > 10000 nM.

Reference: PubChem BioAssay AID1963433 (Molecular Pharmacology Branch, DTP, NCI, 2024)
